System: TSLP induced pSTAT5
Assay: TSLP-induced pSTAT5 in human whole blood (CD3+ cells)
Format: cell-based
Settings: JAK1/JAK2, read-out: TSLP induced pSTAT5, cellular potency IC50
Protocol: Human whole blood was collected from healthy donors via vein puncture into Vacutainer collection tubes containing sodium heparin in accordance with Pfizer protocols (Protocol No. GOHW RDP-01) approved by the Shulman Institutional Review Board. Blood was warmed to 37° C. priorto use. Human whole blood was aliquoted (90 μL/well) in 96-well, deep-well, V-bottom plates and treated with compounds (5 μL/well) at different concentrations up to 60 μM (0.2% DMSO final) at 37° C. for 60 minutes. This was followed by a challenge with IFNα (5000 U/mL), IFNγ (100 ng/mL), IL-6 (50 ng/mL), IL-10 (30 ng/mL), IL-12 (30 ng/mL), IL-15 (30 ng/mL), IL-21 (50 ng/mL), IL-23 (25 ng/mL), IL-27 (1000 ng/mL), EPO (2 U/mL), TSLP (50 ng/mL) or PBS and incubated for 15 minutes. Anti-cell surface antibodies were added 15 minutes prior to cytokine stimulation; anti-CD3-BV421 (0.5 μL/well) to IL-6-treated and TSLP-treated samples and anti-CD14-BV421 (0.5 μL/well) to IFNγ-treated samples. Samples were treated with warm 1×Lyse/Fix buffer (700 μL/well) to terminate activation and further incubated at 37° C. for 20 minutes to lyse red blood cells. Plates were centrifuged at 300×g for 5 minutes, supernatant was aspirated, and cells were washed with 800 μL/well of staining buffer (D-PBS containing 0.1% FBS and 0.01% sodium azide). Washed cell pellets were resuspended in 350 μL/well of prechilled 90% methanol and incubated at 4° C. for 30 minutes. After the removal of 90% methanol, cells were washed once with staining buffer. […]
After overnight incubation at 4° C., anti-pSTAT stained samples were transferred into 96-well polypropylene U-bottom plates and flow cytometric analysis was performed on a LSR Fortessa™ equipped with a HTS plate loader. […] Background fluorescence was defined using unstimulated cells and a gate was placed at the foot of the peak to include ˜0.5% gated population. […]

## C[C@H](O)CS(=O)(=O)N[C@H]1C[C@@H](N(C)c2ncnc3[nH]ccc23)C1 (single isomer, unassigned) [IA (M2)]
  IC50: 271 nM

## CN(c1ncnc2[nH]ccc12)[C@H]1C[C@@H](NS(=O)(=O)CCCO)C1 [IB (M1), 3-Hydroxy-N-(cis-3-(methyl(7H-pyrrolo[2,3-d]pyrimidin-4-yl)amino)cyclobutyl)propane-1-sulfonamide]
  IC50: 785 nM
